Test results as given in ChEMBL document CHEMBL1201862, “PubChem BioAssay data set” (2004).
Activity calls are given as the source filed them.

Legend:
[1] = tested on: Escherichia coli; assay: microbe, parasite or virus in culture
[2] = target: T1, Leucine aminopeptidase (Plasmodium falciparum 3D7, UniProt Q8IL11); assay: P. falciparum M17LAP inhibitors, primary screen, biochemical, fluorogenic H-Leu-NHMec substrate, 1536-well (AID 1619); type: functional
T1 sequence (Q8IL11 whole entry): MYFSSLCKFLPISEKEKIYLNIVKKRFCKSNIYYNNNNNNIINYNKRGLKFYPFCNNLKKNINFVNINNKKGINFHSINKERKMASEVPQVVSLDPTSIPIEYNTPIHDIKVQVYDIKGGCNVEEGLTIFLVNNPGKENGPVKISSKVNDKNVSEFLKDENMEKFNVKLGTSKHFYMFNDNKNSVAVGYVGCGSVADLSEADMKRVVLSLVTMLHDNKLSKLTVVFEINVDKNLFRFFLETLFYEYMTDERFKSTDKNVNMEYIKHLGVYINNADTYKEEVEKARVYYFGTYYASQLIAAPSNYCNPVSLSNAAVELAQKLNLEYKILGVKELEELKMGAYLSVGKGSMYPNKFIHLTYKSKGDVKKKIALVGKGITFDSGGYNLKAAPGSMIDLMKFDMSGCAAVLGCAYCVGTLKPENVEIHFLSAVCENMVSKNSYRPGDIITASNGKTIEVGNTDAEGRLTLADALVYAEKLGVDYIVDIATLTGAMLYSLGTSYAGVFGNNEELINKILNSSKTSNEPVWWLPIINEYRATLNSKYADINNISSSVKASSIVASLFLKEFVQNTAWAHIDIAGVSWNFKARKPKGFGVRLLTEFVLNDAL

[3] = target: T2, Corticotropin-releasing factor receptor 2/Corticotropin-releasing factor-binding protein (Homo sapiens, UniProt P24387+Q13324); assay: activators of CRF receptor 2 with binding protein – uHTS hits, confirmation (AID 602473); type: functional; conditions: read-out: EC50_Mean
T2 sequence (Q13324 whole entry): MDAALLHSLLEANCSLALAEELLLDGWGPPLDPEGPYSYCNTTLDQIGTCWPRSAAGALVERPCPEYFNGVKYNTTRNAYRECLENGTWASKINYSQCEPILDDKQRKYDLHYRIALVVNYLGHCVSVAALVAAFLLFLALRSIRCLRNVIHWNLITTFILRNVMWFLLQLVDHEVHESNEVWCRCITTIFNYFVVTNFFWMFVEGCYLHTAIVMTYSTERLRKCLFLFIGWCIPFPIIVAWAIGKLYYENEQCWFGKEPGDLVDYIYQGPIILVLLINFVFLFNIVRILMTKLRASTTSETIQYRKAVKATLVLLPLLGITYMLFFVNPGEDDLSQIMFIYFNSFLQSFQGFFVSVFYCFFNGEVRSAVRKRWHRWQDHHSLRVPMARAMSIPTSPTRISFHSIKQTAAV
T2 sequence (P24387 whole entry): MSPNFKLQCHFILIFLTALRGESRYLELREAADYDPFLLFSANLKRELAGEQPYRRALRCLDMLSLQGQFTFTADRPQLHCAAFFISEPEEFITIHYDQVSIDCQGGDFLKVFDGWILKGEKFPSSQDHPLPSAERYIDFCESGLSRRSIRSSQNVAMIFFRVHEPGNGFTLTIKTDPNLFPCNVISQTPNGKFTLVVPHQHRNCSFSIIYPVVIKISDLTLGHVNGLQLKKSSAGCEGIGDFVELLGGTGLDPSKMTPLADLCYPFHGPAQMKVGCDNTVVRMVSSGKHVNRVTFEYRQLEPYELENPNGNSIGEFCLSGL

[4] = target: UDP-galactopyranose mutase (Mycobacterium tuberculosis, UniProt P9WIQ1); assay: Inhibitors of Mycobacterium tuberculosis UDP-galactopyranose mutase (UGM) enzyme Measured in Biochemical System Using Plate Reader - 2105-02_Inhibitor_Dose_CherryPick_Activity. [Related pubchem assays (depositor defined):AID504439]
UDP-galactopyranose mutase, sequence (P9WIQ1 whole entry): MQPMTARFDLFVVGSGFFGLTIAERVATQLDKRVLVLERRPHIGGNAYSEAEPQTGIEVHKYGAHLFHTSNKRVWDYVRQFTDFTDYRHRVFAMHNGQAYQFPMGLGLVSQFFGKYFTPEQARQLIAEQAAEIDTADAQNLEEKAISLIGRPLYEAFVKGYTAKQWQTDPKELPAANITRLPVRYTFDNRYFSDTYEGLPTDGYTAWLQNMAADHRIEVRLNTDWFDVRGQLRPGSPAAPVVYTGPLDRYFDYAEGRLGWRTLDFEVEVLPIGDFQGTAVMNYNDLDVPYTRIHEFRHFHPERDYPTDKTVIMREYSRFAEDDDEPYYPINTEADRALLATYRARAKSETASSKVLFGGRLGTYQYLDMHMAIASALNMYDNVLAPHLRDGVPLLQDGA

[5] = target: Glucose-6-phosphate 1-dehydrogenase (Homo sapiens, UniProt P11413); assay: inhibition of Homo sapiens G6PD, dose series – biochemical, fluorescence, selectivity assay for P. falciparum G6PD inhibitor project, dose response (AID 504792); type: functional
Glucose-6-phosphate 1-dehydrogenase, sequence (P11413 whole entry): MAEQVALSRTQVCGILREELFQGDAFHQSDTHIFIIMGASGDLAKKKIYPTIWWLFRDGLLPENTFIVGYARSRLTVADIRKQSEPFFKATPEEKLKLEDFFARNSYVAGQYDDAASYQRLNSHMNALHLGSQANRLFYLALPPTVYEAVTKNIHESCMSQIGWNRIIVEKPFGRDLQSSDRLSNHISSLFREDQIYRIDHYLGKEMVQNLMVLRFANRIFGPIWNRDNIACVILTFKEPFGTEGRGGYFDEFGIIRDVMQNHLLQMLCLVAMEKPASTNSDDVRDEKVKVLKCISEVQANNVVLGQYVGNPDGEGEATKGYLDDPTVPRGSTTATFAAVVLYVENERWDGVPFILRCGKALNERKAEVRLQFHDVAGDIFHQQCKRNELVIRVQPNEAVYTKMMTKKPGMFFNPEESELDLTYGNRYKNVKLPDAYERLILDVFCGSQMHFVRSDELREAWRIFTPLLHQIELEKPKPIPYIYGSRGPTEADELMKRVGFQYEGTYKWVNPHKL

[6] = target: T3, Rac GTPase-activating protein 1 (Homo sapiens, UniProt Q9H0H5); assay: blockers of MgcRacGAP-driven Rac1 GTP hydrolysis – biochemical, ADP Hunter fluorescence, primary and confirmatory, confirmation (AID 624330); type: functional
T3 sequence (Q9H0H5 whole entry): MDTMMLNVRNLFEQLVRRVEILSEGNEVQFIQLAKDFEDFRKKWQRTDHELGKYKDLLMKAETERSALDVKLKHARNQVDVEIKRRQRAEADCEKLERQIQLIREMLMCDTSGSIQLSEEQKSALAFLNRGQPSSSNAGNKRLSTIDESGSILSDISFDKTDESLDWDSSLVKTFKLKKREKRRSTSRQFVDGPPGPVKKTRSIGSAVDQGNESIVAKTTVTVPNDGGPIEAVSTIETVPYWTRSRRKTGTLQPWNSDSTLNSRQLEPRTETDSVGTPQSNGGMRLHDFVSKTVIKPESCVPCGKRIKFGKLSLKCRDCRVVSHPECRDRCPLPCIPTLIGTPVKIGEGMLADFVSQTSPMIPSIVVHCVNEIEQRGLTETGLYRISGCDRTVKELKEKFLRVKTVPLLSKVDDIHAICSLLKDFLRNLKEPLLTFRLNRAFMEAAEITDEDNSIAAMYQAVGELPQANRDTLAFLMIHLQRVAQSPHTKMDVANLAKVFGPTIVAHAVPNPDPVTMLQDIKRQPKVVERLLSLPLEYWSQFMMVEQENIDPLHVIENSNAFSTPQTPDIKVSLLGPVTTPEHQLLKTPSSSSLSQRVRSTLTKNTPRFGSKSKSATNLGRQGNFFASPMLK

[7] = tested on: HeLa; assay: ATP-based viability loss in HeLa cells – cell-based, CellTiter-Glo luminescence, cherry-pick samples, cytotoxicity control for MITF activator project, dose response (AID 540259); type: functional; conditions: Homo sapiens
[8] = target: FAD-linked sulfhydryl oxidase ALR (Homo sapiens, UniProt P55789); assay: ALR-catalysed DTT oxidation blockers – biochemical, H2O2 detection, luminescence, cherry-pick, dose response (AID 493248)
FAD-linked sulfhydryl oxidase ALR, sequence (P55789 whole entry): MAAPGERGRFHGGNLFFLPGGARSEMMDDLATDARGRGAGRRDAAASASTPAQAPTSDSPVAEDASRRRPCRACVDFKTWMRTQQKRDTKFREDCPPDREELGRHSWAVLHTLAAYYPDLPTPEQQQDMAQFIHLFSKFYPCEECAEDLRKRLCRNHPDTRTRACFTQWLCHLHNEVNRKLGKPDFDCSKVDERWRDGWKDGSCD

[9] = target: Cytochrome P450 2D6 (Homo sapiens, UniProt P10635);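 also: CYP2D6 member of a cytochrome P450 panel assay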
Cytochrome P450 2D6, sequence (P10635 whole entry): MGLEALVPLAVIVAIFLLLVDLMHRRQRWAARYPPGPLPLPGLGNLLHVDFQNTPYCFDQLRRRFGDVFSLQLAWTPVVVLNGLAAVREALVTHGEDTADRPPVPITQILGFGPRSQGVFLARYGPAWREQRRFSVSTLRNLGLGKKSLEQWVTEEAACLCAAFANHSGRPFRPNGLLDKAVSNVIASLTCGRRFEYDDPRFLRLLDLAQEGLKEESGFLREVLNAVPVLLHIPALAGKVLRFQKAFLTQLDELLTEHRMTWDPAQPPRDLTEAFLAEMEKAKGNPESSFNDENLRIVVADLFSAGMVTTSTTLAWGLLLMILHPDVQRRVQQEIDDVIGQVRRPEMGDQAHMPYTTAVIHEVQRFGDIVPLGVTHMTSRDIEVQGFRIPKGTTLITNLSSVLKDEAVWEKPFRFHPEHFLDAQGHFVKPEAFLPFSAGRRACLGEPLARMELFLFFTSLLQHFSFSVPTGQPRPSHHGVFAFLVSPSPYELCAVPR

[10] = target: Cytochrome P450 2C9 (Homo sapiens, UniProt P11712)
Cytochrome P450 2C9, sequence (P11712 whole entry): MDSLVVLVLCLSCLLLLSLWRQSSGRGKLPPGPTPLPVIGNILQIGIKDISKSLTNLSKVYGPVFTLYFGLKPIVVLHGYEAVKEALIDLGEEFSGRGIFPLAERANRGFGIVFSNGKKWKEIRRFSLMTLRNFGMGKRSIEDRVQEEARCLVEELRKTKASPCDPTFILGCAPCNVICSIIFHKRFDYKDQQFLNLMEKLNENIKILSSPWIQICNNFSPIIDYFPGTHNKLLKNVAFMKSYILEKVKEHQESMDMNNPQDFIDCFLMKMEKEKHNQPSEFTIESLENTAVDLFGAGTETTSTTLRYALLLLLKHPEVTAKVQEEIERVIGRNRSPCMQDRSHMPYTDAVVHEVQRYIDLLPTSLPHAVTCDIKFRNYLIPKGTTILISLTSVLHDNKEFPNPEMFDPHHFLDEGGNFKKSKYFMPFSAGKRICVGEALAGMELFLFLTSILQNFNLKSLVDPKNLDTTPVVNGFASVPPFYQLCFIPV

Cc1ccc(O)c(C(=O)c2coc(=N)c(C(=O)NC(C)C)c2)c1
AC50 [1]: 23.8 µM (active)
IC50 [2]: 4.66 µM (active)

N#C/C(=C\C=C\c1ccccc1)c1nc(-c2ccc3c(c2)OCO3)cs1
EC50 [3]: 9.03 µM (active)
AC50 [4]: 38.5 µM (active)

O=C1CCN(c2ccccc2)N1 [PHENIDONE]
IC50 [5]: 42.1 µM (inactive)
IC50 [6]: 46.5 µM (active)

O=C(NCCc1ccc(O)cc1)c1ccc(Cl)cc1
AC50 [7]: 99 µM (active)
AC50 [8]: 6.24 µM (active)
AC50 [9]: 25.1 µM (inconclusive)
AC50 [10]: inconclusive

CCCC(=O)Nc1ccc(NC(=O)c2ccccn2)cn1
AC50 [1]: 58.3 µM (active)

COc1ccccc1NC(=S)NC(=O)C(C)C
AC50 [1]: 50.3 µM (active)
